Literature values as cited in patent publication US12364689B2, “Dosage regimen for the treatment of cancer” (AstraZeneca AB, priority 2020, dated 2025).

What was measured:
ERα receptor [1] = molecular target: T1, ERα receptor (Homo sapiens, UniProt P03372); conditions: 500 mg monthly dose; cited from earlier work
T1 sequence (P03372 1-595): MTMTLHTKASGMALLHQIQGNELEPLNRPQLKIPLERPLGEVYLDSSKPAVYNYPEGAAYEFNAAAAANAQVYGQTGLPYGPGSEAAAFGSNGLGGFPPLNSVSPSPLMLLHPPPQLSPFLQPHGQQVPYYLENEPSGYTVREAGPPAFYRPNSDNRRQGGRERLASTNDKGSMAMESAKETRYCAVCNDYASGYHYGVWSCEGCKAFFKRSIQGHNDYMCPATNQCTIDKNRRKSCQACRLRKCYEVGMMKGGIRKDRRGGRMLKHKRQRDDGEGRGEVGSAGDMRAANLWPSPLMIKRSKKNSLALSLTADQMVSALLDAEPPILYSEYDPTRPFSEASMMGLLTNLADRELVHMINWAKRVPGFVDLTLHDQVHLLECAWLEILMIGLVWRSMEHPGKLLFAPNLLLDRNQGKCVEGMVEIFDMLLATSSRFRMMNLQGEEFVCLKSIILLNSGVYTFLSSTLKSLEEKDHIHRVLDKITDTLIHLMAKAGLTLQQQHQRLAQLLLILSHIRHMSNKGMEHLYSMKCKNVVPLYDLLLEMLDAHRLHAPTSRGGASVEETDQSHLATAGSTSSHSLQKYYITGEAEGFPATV

ERα receptor [2] = molecular target: T1, ERα receptor; conditions: in vitro breast cell line experiments; cited from earlier work

C[C@]12CC[C@@H]3c4ccc(O)cc4C[C@@H](CCCCCCCCC[S+]([O-])CCCC(F)(F)C(F)(F)F)[C@H]3[C@@H]1CC[C@@H]2O (some centres unmarked) [Fulvestrant, fulvestrant]
turnover of the receptor in patient samples (ERα receptor [1]): less than 50% | down-regulation of the receptor (ERα receptor [2]): complete down-regulation
